Data reported in ChEMBL document CHEMBL1201862, “PubChem BioAssay data set” (2004).
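Dose response: 5 concentrations. Exposure: 48 h. Format: 96-well plates. Endpoint: linear interpolation; highest concentration if not reached. GI50: concentration for 50% inhibition of growth.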 Active and inactive are the calls of the source. Rule as the data show it: active = GI50 up to about 1.1 µM and inactive = higher.

Legend:
Test in all cases: NCI anticancer screen, dose series, 48 h
TK-10 = test system: TK-10
OVCAR-8 = test system: OVCAR-8
RXF 393 = test system: RXF 393
HL-60 = test system: HL-60
OVCAR-3 = test system: OVCAR-3
DU-145 = test system: DU-145
NCI-H460 = test system: NCI-H460
CAKI-1 = test system: CAKI-1
HOP-92 = test system: HOP-92
HCT-15 = test system: HCT-15
SNB-75 = test system: SNB-75
CCRF-CEM = test system: CCRF-CEM
SNB-19 = test system: SNB-19
A549 = test system: A549
PC-3 = test system: PC-3
SK-MEL-2 = test system: SK-MEL-2
SR = test system: SR
Malme-3M = test system: Malme-3M
Hs-578T = test system: Hs-578T

Row | SMILES | GI50 (TK-10) | GI50 (OVCAR-8) | GI50 (RXF 393) | GI50 (HL-60) | GI50 (OVCAR-3) | GI50 (DU-145) | GI50 (NCI-H460) | GI50 (CAKI-1) | GI50 (HOP-92) | GI50 (HCT-15) [µM] | GI50 (SNB-75) | GI50 (CCRF-CEM) | GI50 (SNB-19) | GI50 (A549) | GI50 (PC-3) | GI50 (SK-MEL-2) | GI50 (SR) | GI50 (Malme-3M) | GI50 (Hs-578T)
1 | COc1ccc(C(O)c2nccn2C)c(OC)c1 (stereo unspecified) | > 100 µM (inactive) | > 100 µM (inactive) | > 100 µM (inactive) | > 100 µM (inactive) | > 100 µM (inactive) | > 100 µM (inactive) | > 100 µM (inactive) | > 100 µM (inactive) | > 100 µM (inactive) | > 100 | 29.6 µM (inactive) | > 100 µM (inactive) | > 100 µM (inactive) | > 100 µM (inactive) | > 100 µM (inactive) | > 100 µM (inactive) | > 100 µM (inactive) | > 100 µM (inactive) | –
2 | COCO[C@@H]1C[C@H]2C(=O)Nc3ccccc3C(=O)N2C1 | 71.4 µM (inactive) | > 100 µM (inactive) | 20.6 µM (inactive) | – | – | 48.8 µM (inactive) | – | 36 µM (inactive) | – | > 100 | 45.3 µM (inactive) | – | 77.4 µM (inactive) | > 100 µM (inactive) | 43.8 µM (inactive) | 46.6 µM (inactive) | – | 40.3 µM (inactive) | 58.6 µM (inactive)
3 | CC(NC(=O)c1ccc(OP(=O)(OCc2ccc([N+](=O)[O-])o2)N(C)CCCCCl)cc1)c1ccc(OCC2CCCCC2)c(C(N)=O)c1 (stereo unspecified) | 6.43 µM (inactive) | 4.49 µM (inactive) | 2.25 µM (inactive) | 3.33 µM (inactive) | 2.57 µM (inactive) | 4.27 µM (inactive) | 3.27 µM (inactive) | 12.4 µM (inactive) | 1.19 µM (inactive) | 2.45 | 4.56 µM (inactive) | – | 16.4 µM (inactive) | 2.7 µM (inactive) | 3.44 µM (inactive) | 3.05 µM (inactive) | 1.73 µM (inactive) | 2.52 µM (inactive) | –
4 | O=C(O)CN(c1ccc(Cl)cc1)S(=O)(=O)c1ccccc1 | > 100 µM (inactive) | > 100 µM (inactive) | > 100 µM (inactive) | > 100 µM (inactive) | > 100 µM (inactive) | – | > 100 µM (inactive) | > 100 µM (inactive) | > 100 µM (inactive) | > 100 | > 100 µM (inactive) | > 100 µM (inactive) | > 100 µM (inactive) | > 100 µM (inactive) | – | > 100 µM (inactive) | – | > 100 µM (inactive) | –
5 | O=C1CCC2SC1CCC2=O | > 100 µM (inactive) | > 100 µM (inactive) | > 100 µM (inactive) | > 100 µM (inactive) | > 100 µM (inactive) | > 100 µM (inactive) | > 100 µM (inactive) | > 100 µM (inactive) | > 100 µM (inactive) | > 100 | > 100 µM (inactive) | > 100 µM (inactive) | > 100 µM (inactive) | > 100 µM (inactive) | > 100 µM (inactive) | > 100 µM (inactive) | – | > 100 µM (inactive) | –
6 | CN(/N=C/c1ccccn1)C1=NCCCN1 | > 100 µM (inactive) | > 100 µM (inactive) | > 100 µM (inactive) | > 100 µM (inactive) | > 100 µM (inactive) | – | > 100 µM (inactive) | > 100 µM (inactive) | > 100 µM (inactive) | > 100 | > 100 µM (inactive) | > 100 µM (inactive) | > 100 µM (inactive) | > 100 µM (inactive) | > 100 µM (inactive) | > 100 µM (inactive) | > 100 µM (inactive) | > 100 µM (inactive) | > 100 µM (inactive)
7 | COc1ccc(-c2c(-c3ccc(OC)cc3)n3c(=O)n(C)c(=O)n23)cc1 | 33.3 µM (inactive) | 17.6 µM (inactive) | 76.4 µM (inactive) | – | 18.2 µM (inactive) | 15.6 µM (inactive) | – | > 100 µM (inactive) | 18.8 µM (inactive) | 81.5 | > 100 µM (inactive) | 59.4 µM (inactive) | 17.1 µM (inactive) | 53.3 µM (inactive) | 27.4 µM (inactive) | 43.2 µM (inactive) | – | 91.6 µM (inactive) | –
8 | NC(=O)NC1C(c2ccccc2)=C1c1ccccc1 | 18 µM (inactive) | 12.5 µM (inactive) | 3.41 µM (inactive) | 31.6 µM (inactive) | 28.9 µM (inactive) | 41.3 µM (inactive) | 15.5 µM (inactive) | 18.9 µM (inactive) | 11.9 µM (inactive) | 13.6 | – | 5.47 µM (inactive) | 34.8 µM (inactive) | 27.4 µM (inactive) | 17.1 µM (inactive) | – | – | 21.1 µM (inactive) | 27.6 µM (inactive)
9 | Cc1ccc(S(=O)(=O)N/N=C2/C(=O)Nc3c(Cl)cc(Cl)cc32)cc1 | 79.1 µM (inactive) | 38.8 µM (inactive) | 43.3 µM (inactive) | 36.9 µM (inactive) | 60.3 µM (inactive) | – | 44.2 µM (inactive) | 59.4 µM (inactive) | > 100 µM (inactive) | 68.9 | – | 55.6 µM (inactive) | > 100 µM (inactive) | 67.5 µM (inactive) | 78.3 µM (inactive) | > 100 µM (inactive) | 34.4 µM (inactive) | 91.4 µM (inactive) | 76.6 µM (inactive)
10 | O=c1cc(CSc2c(-c3ccccc3)c(=O)n(-c3ccccc3)c(=S)n2-c2ccccc2)[nH]c(=O)[nH]1 | > 100 µM (inactive) | > 100 µM (inactive) | > 100 µM (inactive) | > 100 µM (inactive) | > 100 µM (inactive) | > 100 µM (inactive) | > 100 µM (inactive) | > 100 µM (inactive) | – | > 100 | > 100 µM (inactive) | > 100 µM (inactive) | > 100 µM (inactive) | > 100 µM (inactive) | > 100 µM (inactive) | > 100 µM (inactive) | > 100 µM (inactive) | – | –
11 | CCC(O)c1ccc(/N=C/c2ccccc2O)cc1 (stereo unspecified) | > 100 µM (inactive) | – | > 100 µM (inactive) | > 100 µM (inactive) | > 100 µM (inactive) | > 100 µM (inactive) | > 100 µM (inactive) | > 100 µM (inactive) | > 100 µM (inactive) | > 100 | > 100 µM (inactive) | – | > 100 µM (inactive) | > 100 µM (inactive) | > 100 µM (inactive) | > 100 µM (inactive) | 90.2 µM (inactive) | > 100 µM (inactive) | –
12 | Cc1ccc(S(=O)(=O)N2CCCSCCSCCCN(S(=O)(=O)c3ccc(C)cc3)CC2)cc1 | > 100 µM (inactive) | > 100 µM (inactive) | > 100 µM (inactive) | – | > 100 µM (inactive) | > 100 µM (inactive) | > 100 µM (inactive) | – | – | > 100 | > 100 µM (inactive) | – | > 100 µM (inactive) | > 100 µM (inactive) | – | > 100 µM (inactive) | – | – | > 100 µM (inactive)
13 | O=C1C=C(c2c(-c3ccccc3)[nH]c3ccccc23)C(=O)N1c1ccccc1 | 12.7 µM (inactive) | 4.46 µM (inactive) | 3.8 µM (inactive) | 3.96 µM (inactive) | 4.41 µM (inactive) | 3.52 µM (inactive) | 14.6 µM (inactive) | 5.53 µM (inactive) | 9.14 µM (inactive) | 5.38 | – | 4.02 µM (inactive) | 21.9 µM (inactive) | 14.6 µM (inactive) | 7.78 µM (inactive) | 12.5 µM (inactive) | – | 11.5 µM (inactive) | 4.15 µM (inactive)
14 | C[C@H]1O[C@@H](C(C)(C)C)OC(=O)[C@@H]1C(OC(=O)c1ccccc1)c1cccc2ccccc12 (stereo partly specified) | > 100 µM (inactive) | > 100 µM (inactive) | > 100 µM (inactive) | – | > 100 µM (inactive) | – | > 100 µM (inactive) | > 100 µM (inactive) | – | > 100 | > 100 µM (inactive) | > 100 µM (inactive) | > 100 µM (inactive) | > 100 µM (inactive) | > 100 µM (inactive) | > 100 µM (inactive) | 48.4 µM (inactive) | > 100 µM (inactive) | 40.7 µM (inactive)
15 | O=C(NNC(=O)c1csc(NC(=S)NC2CCCCC2)n1)c1ccccc1 | 22 µM (inactive) | 6.52 µM (inactive) | – | – | 4.33 µM (inactive) | 18.7 µM (inactive) | – | 18.6 µM (inactive) | – | 2.74 | 83.9 µM (inactive) | 3.61 µM (inactive) | – | 15.1 µM (inactive) | 7.82 µM (inactive) | 22.4 µM (inactive) | 2.26 µM (inactive) | 15.5 µM (inactive) | –
16 | COc1ccc2nc3n(c2c1)C(c1c(F)cccc1Cl)SC3 (stereo unspecified) | > 100 µM (inactive) | 46.8 µM (inactive) | > 100 µM (inactive) | 9.31 µM (inactive) | > 100 µM (inactive) | > 100 µM (inactive) | > 100 µM (inactive) | > 100 µM (inactive) | 41.8 µM (inactive) | > 100 | > 100 µM (inactive) | > 100 µM (inactive) | > 100 µM (inactive) | > 100 µM (inactive) | > 100 µM (inactive) | > 100 µM (inactive) | > 100 µM (inactive) | – | –
17 | CCN1C(=O)C(=C/C=C/C=C2/N(C)c3ccccc3C2(C)C)C(=O)N(CC)C1=S | > 100 µM (inactive) | > 100 µM (inactive) | 39.6 µM (inactive) | > 100 µM (inactive) | 36.4 µM (inactive) | 64.7 µM (inactive) | 38.9 µM (inactive) | > 100 µM (inactive) | > 100 µM (inactive) | > 100 | > 100 µM (inactive) | > 100 µM (inactive) | > 100 µM (inactive) | > 100 µM (inactive) | – | > 100 µM (inactive) | > 10 µM (inactive) | > 100 µM (inactive) | > 100 µM (inactive)
